In patent publication US20040192665A1 (priority 2002, published 2004):

How the values were obtained:
[1] = tested on: DU-145 human prostate tumor cells; test: DU-145 xenograft tumor growth in nude mice; type: in vivo, nude mice (nu/nu); settings: experiment 2; I.P. 8 mg/kg once per week; after 5 treatments
Procedure: Cage were cleaned and bedding changed once weekly. Irradiated corn cob bedding was used. Animals were observed daily and clinical signs were noted.
Morbidity and mortality were monitored daily.
The dosage level was determined by exact body weight.
Five mice per treatment group were tested.
Animals were treated once per week for 5 weeks.

[2] = experiment 2, I.P. 8 mg/kg once per week

For `COc1cccc2c1C(=O)c1c(O)c3c(c(O)c1C2=O)C[C@@](O)(C(=O)CO)C[C@@H]3O[C@H]1C[C@H](N)[C@H](O)[C@H](C)O1` [doxorubicin], the “tumor volumes less compared to placebo-control tumors” value [1] was 4.4 fold, the animals survived ([2]; after 5 treatments) was 3/6 and the “average group weight in the surviving animals, down by” value ([2]; after the 5th treatment) was 27%.
